Experimental data published in PubChem BioAssay AID1918934 (Molecular Pharmacology Branch, DTP, NCI, 2023).
Where “and” joins values, the source holds several entries; their conditions need not be identical. Equal entries are not always repeated. Each block holds one molecule with its values, some of them ahead of it.

System: 292921-168-R-J2-PDC complex spheroid viability
Test: Anticancer human tumor 292921-168-R-J2-PDC patient-derived pancreatic carcinoma cell line growth inhibition
Settings: for viability, T/C: stronger effect = lower value
How it was run: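 Drug combinations with the LSD1 inhibitor iadademstat tested on tumor cells co-cultured as spheroids with endothelial cells and mesenchymal stem cells. Concentrations descended in half-log increments from clinical Cmax or 10 microM.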

[1] = curve of first compound, second compound 0.1 µM
[2] = curve of first compound, second compound 0.316 µM
[3] = curve of first compound, second compound 1 µM
[4] = curve of first compound, second compound 3.16 µM
[5] = curve of first compound, second compound 10 µM
[6] = second compound 0.1 µM, first compound 0.00949 µM
[7] = second compound 0.1 µM, first compound 0.03 µM
[8] = second compound 0.1 µM, first compound 0.0949 µM
[9] = second compound 0.1 µM, first compound 0.3 µM
[10] = second compound 0.1 µM, first compound 0.949 µM
[11] = second compound 0.1 µM, first compound 3 µM
[12] = second compound 0.316 µM, first compound 0.00949 µM
[13] = second compound 0.316 µM, first compound 0.03 µM
[14] = second compound 0.316 µM, first compound 0.0949 µM
[15] = second compound 0.316 µM, first compound 0.3 µM
[16] = second compound 0.316 µM, first compound 0.949 µM
[17] = second compound 0.316 µM, first compound 3 µM
[18] = second compound 1 µM, first compound 0.00949 µM
[19] = second compound 1 µM, first compound 0.03 µM
[20] = second compound 1 µM, first compound 0.0949 µM
[21] = second compound 1 µM, first compound 0.3 µM
[22] = second compound 1 µM, first compound 0.949 µM
[23] = second compound 1 µM, first compound 3 µM
[24] = second compound 3.16 µM, first compound 0.00949 µM
[25] = second compound 3.16 µM, first compound 0.03 µM
[26] = second compound 3.16 µM, first compound 0.0949 µM
[27] = second compound 3.16 µM, first compound 0.3 µM
[28] = second compound 3.16 µM, first compound 0.949 µM
[29] = second compound 3.16 µM, first compound 3 µM
[30] = second compound 10 µM, first compound 0.00949 µM
[31] = second compound 10 µM, first compound 0.03 µM
[32] = second compound 10 µM, first compound 0.0949 µM
[33] = second compound 10 µM, first compound 0.3 µM
[34] = second compound 10 µM, first compound 0.949 µM
[35] = second compound 10 µM, first compound 3 µM
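Note: seven day compound exposure before luminescent viability read.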
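Throughout, for viability, T/C: 100% = DMSO vehicle control wells.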

Compound: O=C(C=Cc1cccc(S(=O)(=O)Nc2ccccc2)c1)NO + NC1CCC(NC2CC2c2ccccc2)CC1
IC50 [1]: < 9.49 nM
IC50 [2]: < 9.49 nM
IC50 [3]: < 9.49 nM
IC50 [4]: < 9.49 nM
IC50 [5]: < 9.49 nM
viability, T/C [6]: 44%
viability, T/C [7]: 36.2%
viability, T/C [8]: 28.6%
viability, T/C [9]: 17.3%
viability, T/C [10]: 0.45%
viability, T/C [11]: 0.08%
viability, T/C [12]: 48.7%
viability, T/C [13]: 34.8%
viability, T/C [14]: 31.6%
viability, T/C [15]: 19.1%
viability, T/C [16]: 0.37%
viability, T/C [17]: 0.38%
viability, T/C [18]: 43.8%
viability, T/C [19]: 35.6%
viability, T/C [20]: 30.9%
viability, T/C [21]: 15.2%
viability, T/C [22]: 0.34%
viability, T/C [23]: 0.09%
viability, T/C [24]: 40%
viability, T/C [25]: 33.4%
viability, T/C [26]: 24.4%
viability, T/C [27]: 12.4%
viability, T/C [28]: 0.19%
viability, T/C [29]: 0.08%
viability, T/C [30]: 42.2%
viability, T/C [31]: 32.4%
viability, T/C [32]: 22.9%
viability, T/C [33]: 7.61%
viability, T/C [34]: 0.12%
viability, T/C [35]: 0.13%

IC50 (curve of compound): < 9.49 nM and 12.8 nM
Compound: O=C(C=Cc1cccc(S(=O)(=O)Nc2ccccc2)c1)NO
viability, T/C (compound 0.00949 µM): 47.6% and 52.8%
viability, T/C (compound 0.03 µM): 41% and 44.1%
viability, T/C (compound 0.0949 µM): 28.8% and 32.3%
viability, T/C (compound 0.3 µM): 18.1% and 25.8%
viability, T/C (compound 0.949 µM): 0.52% and 1.26%
viability, T/C (compound 3 µM): 0.15%

Compound: Nc1ccccc1NC(=O)c1ccc(CNC(=O)OCc2cccnc2)cc1 + NC1CC1c1ccc(-c2cccc(O)c2)cc1
IC50 [1]: 29.5 nM
IC50 [2]: < 9.49 nM
IC50 [3]: 12.4 nM
IC50 [4]: < 9.49 nM
IC50 [5]: < 9.49 nM
viability, T/C [6]: 60.9%
viability, T/C [7]: 49%
viability, T/C [8]: 34.9%
viability, T/C [9]: 19.9%
viability, T/C [10]: 4.91%
viability, T/C [11]: 0.29%
viability, T/C [12]: 48.2%
viability, T/C [13]: 42.1%
viability, T/C [14]: 31.2%
viability, T/C [15]: 19.6%
viability, T/C [16]: 4.68%
viability, T/C [17]: 0.3%
viability, T/C [18]: 53.6%
viability, T/C [19]: 38.6%
viability, T/C [20]: 33.7%
viability, T/C [21]: 18.6%
viability, T/C [22]: 4.33%
viability, T/C [23]: 0.19%
viability, T/C [24]: 47.7%
viability, T/C [25]: 38.8%
viability, T/C [26]: 29.6%
viability, T/C [27]: 18.9%
viability, T/C [28]: 3.78%
viability, T/C [29]: 0.25%
viability, T/C [30]: 41.9%
viability, T/C [31]: 43.8%
viability, T/C [32]: 30.1%
viability, T/C [33]: 19%
viability, T/C [34]: 3.97%
viability, T/C [35]: 0.74%

Compound: NC1CC1c1ccc(-c2cccc(O)c2)cc1 (stereo not drawn)
viability, T/C (compound 0.1 µM): 80.2%
viability, T/C (compound 0.316 µM): 71.4% [middle of 24 runs]
viability, T/C (compound 1 µM): 67.6% [middle of 25 runs]
viability, T/C (compound 3.16 µM): 64.6% [middle of 25 runs]
viability, T/C (compound 10 µM): 54.7% [middle of 25 runs]

IC50 (curve of compound): 12.4 nM and 11.4 nM
Compound: O=C(C=Cn1cnc(-c2cc(C(F)(F)F)cc(C(F)(F)F)c2)n1)NNc1cnccn1
viability, T/C (compound 0.00316 µM): 59.5% and 55.2%
viability, T/C (compound 0.01 µM): 55.9% and 55%
viability, T/C (compound 0.0316 µM): 30.4% and 29.4%
viability, T/C (compound 0.1 µM): 14.4% and 14.1%
viability, T/C (compound 0.316 µM): 8.05% and 8.45%
viability, T/C (compound 1 µM): 5.62% and 5.3%

IC50 (curve of compound): 590 nM and 738 nM
Compound: COc1ccc([C@@H](O)c2cc(-c3ncnc4cc(N5CCOCC5)ccc34)c(F)cc2Cl)nn1
viability, T/C (compound 0.0316 µM): 101% and 104%
viability, T/C (compound 0.1 µM): 95.7% and 82.2%
viability, T/C (compound 0.316 µM): 61.2% and 71.4%
viability, T/C (compound 1 µM): 37.6% and 42.1%
viability, T/C (compound 3.16 µM): 24.7% and 24.6%
viability, T/C (compound 10 µM): 11.6% and 13.1%

Compound: CCN(c1cc(-c2ccc(CN3CCOCC3)cc2)cc(C(=O)NCc2c(C)cc(C)[nH]c2=O)c1C)C1CCOCC1 + NC1CCC(NC2CC2c2ccccc2)CC1
IC50 [1]: 953 nM
IC50 [2]: 694 nM
IC50 [3]: 647 nM
IC50 [4]: 649 nM
IC50 [5]: 453 nM
viability, T/C [6]: 67.3%
viability, T/C [7]: 69.7%
viability, T/C [8]: 76.6%
viability, T/C [9]: 63.5%
viability, T/C [10]: 50.6%
viability, T/C [11]: 21.3%
viability, T/C [12]: 77.2%
viability, T/C [13]: 71.7%
viability, T/C [14]: 66.6%
viability, T/C [15]: 66.8%
viability, T/C [16]: 44%
viability, T/C [17]: 18.4%
viability, T/C [18]: 60%
viability, T/C [19]: 61.8%
viability, T/C [20]: 67.6%
viability, T/C [21]: 61%
viability, T/C [22]: 44.3%
viability, T/C [23]: 17.7%
viability, T/C [24]: 59.8%
viability, T/C [25]: 68.4%
viability, T/C [26]: 68.1%
viability, T/C [27]: 57.6%
viability, T/C [28]: 45.6%
viability, T/C [29]: 18.5%
viability, T/C [30]: 62.8%
viability, T/C [31]: 64.3%
viability, T/C [32]: 63.4%
viability, T/C [33]: 56.8%
viability, T/C [34]: 37.4%
viability, T/C [35]: 15.8%

IC50 (curve of compound): 1350 nM and 1460 nM
Compound: CCN(c1cc(-c2ccc(CN3CCOCC3)cc2)cc(C(=O)NCc2c(C)cc(C)[nH]c2=O)c1C)C1CCOCC1
viability, T/C (compound 0.00949 µM): 100% and 99.5%
viability, T/C (compound 0.03 µM): 115% and 103%
viability, T/C (compound 0.0949 µM): 99%
viability, T/C (compound 0.3 µM): 85.1% and 80.7%
viability, T/C (compound 0.949 µM): 63.7% and 67.6%
viability, T/C (compound 3 µM): 22.2% and 24.3%

Compound: CCc1c2c(nc3ccc(O)cc13)-c1cc3c(c(=O)n1C2)COC(=O)[C@]3(O)CC + NC1CC1c1ccc(-c2cccc(O)c2)cc1
IC50 [1]: < 0.949 nM
IC50 [2]: < 0.949 nM
IC50 [3]: < 0.949 nM
IC50 [4]: < 0.949 nM
IC50 [5]: < 0.949 nM
viability, T/C (second compound 0.1 µM, first compound 0.000949 µM): 4.87%
viability, T/C (second compound 0.1 µM, first compound 0.003 µM): 2.64%
viability, T/C [6]: 1.33%
viability, T/C [7]: 1.09%
viability, T/C [8]: 0.85%
viability, T/C [9]: 1.26%
viability, T/C (second compound 0.316 µM, first compound 0.000949 µM): 4.37%
viability, T/C (second compound 0.316 µM, first compound 0.003 µM): 2.24%
viability, T/C [12]: 1.21%
viability, T/C [13]: 0.88%
viability, T/C [14]: 1.1%
viability, T/C [15]: 1.26%
viability, T/C (second compound 1 µM, first compound 0.000949 µM): 4.54%
viability, T/C (second compound 1 µM, first compound 0.003 µM): 2.69%
viability, T/C [18]: 1.23%
viability, T/C [19]: 1.12%
viability, T/C [20]: 1.21%
viability, T/C [21]: 1.22%
viability, T/C (second compound 3.16 µM, first compound 0.000949 µM): 4.42%
viability, T/C (second compound 3.16 µM, first compound 0.003 µM): 2.55%
viability, T/C [24]: 1.18%
viability, T/C [25]: 0.79%
viability, T/C [26]: 1.06%
viability, T/C [27]: 1.13%
viability, T/C (second compound 10 µM, first compound 0.000949 µM): 5.79%
viability, T/C (second compound 10 µM, first compound 0.003 µM): 3.19%
viability, T/C [30]: 1.1%
viability, T/C [31]: 1.82%
viability, T/C [32]: 2.43%
viability, T/C [33]: 1.15%
